According to patent US20090264457A1, “Combination of at least two 5HT6-Ligands” (priority 2007, published 2009):
“Also recorded” adds a separate entry of the source.

Tests used:
Lister Hooded rats = test: Novel object discrimination trial (two trial paradigm); format: in vivo, rat; conditions: for Dose at which the maximum effect was achieved in dose response trials: i.p., drug 20 minutes before familiarisation trial, COMPOUND 1 at 1.25, 2.5, 5 or 10 mg/kg, SB-271046 at 5 or 10 mg/kg
Description: Adult male Lister Hooded rats (Charles River, UK) weighing 200-350 g at the start of the experiment were housed in groups of four on a 12:12 h light:dark cycle (lights on at 07:00 h). Food and water were available ad libitum throughout the study, and the room temperature (21±2° C.) and relative humidity (45-65%) were kept constant. […] Each drug combination was administered to all rats in the group over a period of 4 weeks in a random order using a seven day behavioural test interval.
The two trial novel object discrimination paradigm utilised, was as described by Ennaceur and Delacour, (1988) with minor modification (King et al., 2004b; Woolley et al., 2003). The twelve open field test arenas used for object discrimination were clear perspex boxes (39×23.5 cm with 24.5 cm high walls) to which each rat was habituated for 60 minutes the day prior to test days. On the test day the first drug was administered −40 minutes and the second drug −20 minutes before the familiarisation trial. Therefore, 20 minutes after the injection each rat received 3 minutes acclimatisation to the perspex box in absence of objects which was then followed by the 3 minute familiarisation trial and a second 3 minute choice trial following a 4 hour inter-trial interval. During both trials, exploration of each object was defined as the time spent (s) sniffing (within 1 cm of it with active vibrissae), licking, chewing or touching the object with the nose.

5HT6 receptor = 5HT6 receptor (Homo sapiens, UniProt P50406); conditions: cited from earlier work
Sequence of 5HT6 receptor (P50406 whole entry): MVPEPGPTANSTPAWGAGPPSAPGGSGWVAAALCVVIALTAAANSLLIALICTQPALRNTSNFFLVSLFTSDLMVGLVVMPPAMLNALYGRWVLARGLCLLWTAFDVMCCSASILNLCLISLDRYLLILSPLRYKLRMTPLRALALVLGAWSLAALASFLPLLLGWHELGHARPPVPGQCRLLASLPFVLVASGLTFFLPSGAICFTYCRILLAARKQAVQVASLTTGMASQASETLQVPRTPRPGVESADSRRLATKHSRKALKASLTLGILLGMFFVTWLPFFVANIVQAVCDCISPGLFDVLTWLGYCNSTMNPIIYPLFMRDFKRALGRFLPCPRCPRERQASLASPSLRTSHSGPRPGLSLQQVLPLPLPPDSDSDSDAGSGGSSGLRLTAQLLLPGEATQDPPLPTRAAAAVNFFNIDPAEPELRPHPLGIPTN

Structure (SMILES) | Effectiveness alone in novel object discrimination (Lister Hooded rats; COMPOUND 1 alone at 1 mg/kg i.p., 1 mg/kg) | Dose at which the maximum effect was achieved in dose response trials (Lister Hooded rats) [mg/kg] | Functionality on the 5HT6 receptor (5HT6 receptor) | Effectiveness alone in novel object discrimination (Lister Hooded rats; SB-271046 alone at 5 mg/kg i.p., 5 mg/kg)
CN(C)CCc1c[nH]c2ccc(NS(=O)(=O)c3c(Cl)nc4sccn34)cc12 [COMPOUND 1, 6-Chloro-imidazo[2,1-b]thiazole-5-sulfonic acid [3-(2-dimethylamino-ethyl)-1H-indol-5-yl]-amide] | either not or very low effective; also recorded: neither COMPOUND 1 at 1 mg/kg nor SB-271046 at 5 mg/kg being significantly effective | 5 | agonist | 
COc1ccc(NS(=O)(=O)c2sc3ccc(Cl)cc3c2C)cc1N1CCNCC1 [SB-271046, 5-Chloro-N-(4-methoxy-3-(piperazin-1-yl)phenyl)-3-methyl-2-benzothiophene sulfonamide] |  | 10 | antagonist | either not or very low effective; also recorded: neither COMPOUND 1 at 1 mg/kg nor SB-271046 at 5 mg/kg being significantly effective
